Literature values as cited in paper PMC3230568 (International Journal of Nanomedicine, 2011).

Columns and labels:
NTD of p53 = conditions: biological as well as computational studies
[1] = azurin
cancer cells [2] = conditions: azurin, relative to normal cells
full-length p53 = full-length p53 (Homo sapiens, UniProt P04637); conditions: single-molecule AFS
cancer cells [3] = conditions: azurin
p53 = conditions: azurin

full-length p53, sequence (P04637 whole entry): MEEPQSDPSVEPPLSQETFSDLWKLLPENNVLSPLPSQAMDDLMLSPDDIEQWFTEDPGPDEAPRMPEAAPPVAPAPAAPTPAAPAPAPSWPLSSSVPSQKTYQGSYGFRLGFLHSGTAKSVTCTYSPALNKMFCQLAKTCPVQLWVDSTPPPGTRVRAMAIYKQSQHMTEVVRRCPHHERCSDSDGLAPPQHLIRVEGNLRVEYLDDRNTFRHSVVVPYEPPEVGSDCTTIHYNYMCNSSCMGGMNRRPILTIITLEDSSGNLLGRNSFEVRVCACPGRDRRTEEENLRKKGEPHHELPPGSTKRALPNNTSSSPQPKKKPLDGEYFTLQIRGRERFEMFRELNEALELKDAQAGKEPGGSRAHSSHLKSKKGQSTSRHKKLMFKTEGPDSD

Substance: azurin: copper-containing, electron-transfer protein secreted by Pseudomonas aeruginosa; 128-amino acid
- binding to p53 NTD (NTD of p53): binds to either the NTD of p53
- anticancer activity in vivo [1]: significant anticancer activity
- preferential entry into cancer cells (cancer cells [2]): preferentially enters cancer relative to normal cells
- complex formation with full-length p53 (full-length p53): a stable complex is formed
- anticancer activity in vitro (cancer cells [3]): significant anticancer activity in vitro
- effect on p53 level (p53): stabilization and subsequent increase in intracellular concentration of p53
